Here are results for 24 compounds from US20240228488A1 (TAKEDA PHARMACEUTICAL COMPANY LIMITED, priority 2021, published 2024).

What is called EC50 is the concentration giving half of the maximal effect.

The target of this assay is human activated kallikrein enzyme (Homo sapiens, UniProt P03952). The experiment in a line: Plasma kallikrein inhibition, fluorogenic PFR-AMC substrate, 500 pM activated kallikrein format. The settings on record: 500 pM activated kallikrein, 300 uM PFR-AMC, 30 min preincubation, 10 min reaction; read-out: Primary Dose Response Assay: Average EC50. The format is biochemical. Put shortly: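 Fluorescence (ex 380/em 460 nm) is read after 10 min of 300 uM PFR-AMC turnover by 500 pM enzyme at RT. Compounds sit with enzyme for 30 min beforehand. Buffer is Tris (pH 7.5) with EDTA, NaCl, PEG-400 and Triton X-100; EC50 values are banded.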
Chain of human activated kallikrein enzyme (P03952 391-638 limits assumed): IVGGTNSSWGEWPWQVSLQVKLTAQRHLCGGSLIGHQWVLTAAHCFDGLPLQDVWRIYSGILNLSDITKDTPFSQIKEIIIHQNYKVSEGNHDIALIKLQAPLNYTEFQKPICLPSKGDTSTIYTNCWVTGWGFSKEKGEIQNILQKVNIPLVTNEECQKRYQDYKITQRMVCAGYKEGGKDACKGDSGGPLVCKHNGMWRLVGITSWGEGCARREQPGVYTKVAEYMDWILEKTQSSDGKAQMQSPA
Chain of human activated kallikrein enzyme (P03952 20-390 partner limits assumed): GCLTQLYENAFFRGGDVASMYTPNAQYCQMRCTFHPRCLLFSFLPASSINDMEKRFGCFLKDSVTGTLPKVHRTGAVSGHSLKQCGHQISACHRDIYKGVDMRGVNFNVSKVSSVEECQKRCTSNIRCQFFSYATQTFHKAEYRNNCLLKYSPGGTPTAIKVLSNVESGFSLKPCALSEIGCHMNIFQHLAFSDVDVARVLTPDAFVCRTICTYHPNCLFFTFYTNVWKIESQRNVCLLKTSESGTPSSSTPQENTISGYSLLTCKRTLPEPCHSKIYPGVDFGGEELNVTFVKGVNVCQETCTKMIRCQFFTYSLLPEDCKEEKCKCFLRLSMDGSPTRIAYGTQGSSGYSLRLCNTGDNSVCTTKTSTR
Consider `CC(C)(C)OC(=O)Nc1ccc([C@H]2C[C@@H]2C(=O)Nc2cc(NCc3cn4cc(C5CC5)ccc4n3)ncn2)cc1Cl` (racemic) [Example I-188, rac-tert-butyl (2-chloro-4-((1S*,2S*)-2-((6-(((6-cyclopropylimidazo[1,2-a]pyridin-2-yl)methyl)amino)pyrimidin-4-yl)carbamoyl)cyclopropyl)phenyl)carbamate], for which the EC50 was over 6000 nM. For `CC(C)(C)OC(=O)Nc1cc(Cl)cc([C@H]2C[C@@H]2C(=O)Nc2cc(NCc3cn4cc(C5CC5)ccc4n3)ncn2)c1` (racemic) [Example I-189, rac-tert-butyl (3-chloro-5-((1S*,2S*)-2-((6-(((6-cyclopropylimidazo[1,2-a]pyridin-2-yl)methyl)amino)pyrimidin-4-yl)carbamoyl)cyclopropyl)phenyl)carbamate], the EC50 was over 6000 nM. Regarding `O=C(Nc1cc(NCc2cn3cc(C4CC4)ccc3n2)ncn1)[C@H]1C[C@@H]1c1cccc(Cl)c1[N+](=O)[O-]` (racemic) [Example I-190, rac-(1S*,2S*)-2-(3-chloro-2-nitrophenyl)-N-(6-(((6-cyclopropylimidazo[1,2-a]pyridin-2-yl)methyl)amino)pyrimidin-4-yl)cyclopropane-1-carboxamide], the EC50 was over 6000 nM. In the case of `O=C(Nc1cc(NCc2cn3cc(C4CC4)ccc3n2)ncn1)[C@H]1C[C@@H]1c1n[nH]c2ccc(Cl)cc12` (racemic) [Example I-191, rac-(1S*,2S*)-2-(5-chloro-1H-indazol-3-yl)-N-(6-(((6-cyclopropylimidazo[1,2-a]pyridin-2-yl)methyl)amino)pyrimidin-4-yl)cyclopropane-1-carboxamide], the 50% effective concentration (EC50) was over 6000 nM.

Turning to `COc1ccnc([C@H]2C[C@@H]2C(=O)Nc2cc(NCc3cn4cc(C5CC5)ccc4n3)ncn2)c1` (racemic) [Example I-204, rac-(1S*,2S*)-N-(6-(((6-cyclopropylimidazo[1,2-a]pyridin-2-yl)methyl)amino)pyrimidin-4-yl)-2-(4-methoxypyridin-2-yl)cyclopropane-1-carboxamide], the 50% effective concentration (EC50) fell in the range of 100 to 1000 nM.

With `COc1ccc(C#N)c([C@H]2C[C@@H]2C(=O)Nc2cc(NCc3cn4cc(C5CC5)ccc4n3)ccn2)c1` (racemic) [Example I-206, rac-(1S*,2S*)-2-(2-cyano-5-methoxyphenyl)-N-(4-(((6-cyclopropylimidazo[1,2-a]pyridin-2-yl)methyl)amino)pyridin-2-yl)cyclopropane-1-carboxamide], the EC50 was in the range of 10 to 100 nM. Next, `O=C(Nc1cc(NCc2cn3cc(C4CC4)ccc3n2)ccn1)[C@H]1C[C@@H]1c1cc(Cl)ncn1` (racemic) [Example I-210, rac-(1S*,2S*)-2-(6-chloropyrimidin-4-yl)-N-(4-(((6-cyclopropylimidazo[1,2-a]pyridin-2-yl)methyl)amino)pyridin-2-yl)cyclopropane-1-carboxamide]: 100 to 1000 nM. Consider `O=C(Nc1cc(NCc2cn3cc(C4CC4)ccc3n2)ccn1)[C@H]1C[C@@H]1c1cc(Cl)cnn1` (racemic) [Example I-211, rac-(1S*,2S*)-2-(5-chloropyridazin-3-yl)-N-(4-(((6-cyclopropylimidazo[1,2-a]pyridin-2-yl)methyl)amino)pyridin-2-yl)cyclopropane-1-carboxamide], for which the concentration for a half-maximal effect (EC50) lay in the range of 10 to 100 nM. To `N#Cc1cc(Cl)sc1[C@H]1C[C@@H]1C(=O)Nc1cc(NCc2cn3cc(C4CC4)ccc3n2)ccn1` (racemic) [Example I-212, rac-(1S*,2S*)-2-(5-chloro-3-cyanothiophen-2-yl)-N-(4-(((6-cyclopropylimidazo[1,2-a]pyridin-2-yl)methyl)amino)pyridin-2-yl)cyclopropane-1-carboxamide] belongs 1 to 10 nM; to `O=C(Nc1cc(NCc2cn3cc(C4CC4)ccc3n2)ccn1)[C@H]1[C@H](CO)[C@@H]1c1cccc(Cl)c1` (racemic) [Example I-213, rac-(1R*,2S*,3R*)-2-(3-chlorophenyl)-N-(4-(((6-cyclopropylimidazo[1,2-a]pyridin-2-yl)methyl)amino)pyridin-2-yl)-3-(hydroxymethyl)cyclopropane-1-carboxamide], 1 to 10 nM. Consider `COc1ccnc([C@H]2C[C@@H]2C(=O)Nc2cc(NCc3cn4cc(C5CC5)ccc4n3)ccn2)c1` (racemic) [Example I-214, rac-(1S*,2S*)-N-(4-(((6-cyclopropylimidazo[1,2-a]pyridin-2-yl)methyl)amino)pyridin-2-yl)-2-(4-methoxypyridin-2-yl)cyclopropane-1-carboxamide], for which the EC50 was 1 to 10 nM. Next, `COc1cc([C@H]2C[C@@H]2C(=O)Nc2cc(NCc3cn4cc(C5CC5)ccc4n3)ccn2)cc(NC(=O)OC(C)(C)C)n1` (racemic) [Example I-216, rac-tert-butyl (4-((1S*,2S*)-2-((4-(((6-cyclopropylimidazo[1,2-a]pyridin-2-yl)methyl)amino)pyridin-2-yl)carbamoyl)cyclopropyl)-6-methoxypyridin-2-yl)carbamate]: over 6000 nM; `O=C(Nc1cc(NCc2cn3cc(C4CC4)ccc3n2)ccn1)[C@H]1C[C@@H]1c1ccc(Cl)s1` (racemic) [Example I-218, rac-(1S*,2S*)-2-(5-chlorothiophen-2-yl)-N-(4-(((6-cyclopropylimidazo[1,2-a]pyridin-2-yl)methyl)amino)pyridin-2-yl)cyclopropane-1-carboxamide]: 10 to 100 nM; `O=C(Nc1cc(NCc2cn3cc(C4CC4)ccc3n2)ccn1)[C@H]1C[C@@H]1c1ccnc(Cl)c1` (racemic) [Example I-220, rac-(1S*,2S*)-2-(2-chloropyridin-4-yl)-N-(4-(((6-cyclopropylimidazo[1,2-a]pyridin-2-yl)methyl)amino)pyridin-2-yl)cyclopropane-1-carboxamide]: 10 to 100 nM.

As for `O=C(Nc1cc(NCc2cn3cc(C4CC4)ccc3n2)ccn1)[C@H]1C[C@@H]1c1cncc(Cl)c1` (racemic) [Example I-221, rac-(1S*,2S*)-2-(5-chloropyridin-3-yl)-N-(4-(((6-cyclopropylimidazo[1,2-a]pyridin-2-yl)methyl)amino)pyridin-2-yl)cyclopropane-1-carboxamide], the EC50 was 10 to 100 nM. Next, `O=C(Nc1cc(NCc2cn3cc(C4CC4)ccc3n2)ccn1)[C@H]1C[C@@H]1c1n[nH]c2ccc(Cl)cc12` (racemic) [Example I-225, rac-(1S*,2S*)-2-(5-chloro-1H-indazol-3-yl)-N-(4-(((6-cyclopropylimidazo[1,2-a]pyridin-2-yl)methyl)amino)pyridin-2-yl)cyclopropane-1-carboxamide]: over 6000 nM; `Nc1cc(Cl)cc([C@H]2C[C@@H]2C(=O)Nc2cc(NCc3cn4cc(C5CC5)ccc4n3)ncn2)c1` (racemic) [Example I-256, rac-(1S*,2S*)-2-(3-amino-5-chlorophenyl)-N-(6-(((6-cyclopropylimidazo[1,2-a]pyridin-2-yl)methylamino)pyrimidin-4-yl)cyclopropane-1-carboxamide]: 10 to 100 nM; `O=C(Nc1cc(NCc2cn3cc(C4CC4)ccc3n2)ncn1)[C@H]1C[C@@H]1c1cc(Cl)ccn1` (racemic) [Example I-265, rac-(1S*,2S*)-2-(4-chloropyridin-2-yl)-N-(6-(((6-cyclopropylimidazo[1,2-a]pyridin-2-yl)methyl)amino)pyrimidin-4-yl)cyclopropane-1-carboxamide]: 1 to 10 nM.

On to `O=C(Nc1cc(NCc2cn3cc(C4CC4)ccc3n2)ccn1)[C@@H]1C[C@]12CCc1ccc(Cl)cc12` (racemic) [Example I-271, rac-(1S*,2S*)-6′-chloro-N-(4-(((6-cyclopropylimidazo[1,2-a]pyridin-2-yl)methyl)amino)pyridin-2-yl)-2′,3′-dihydrospiro[cyclopropane-1,1′-indene]-2-carboxamide], for which the concentration giving a half-maximal response (EC50) is under 1 nM. To `O=C(Nc1cc(NCc2cn3cc(C4CC4)cc(N4C[C@H](O)CC4=O)c3n2)ncn1)[C@H]1C[C@@H]1c1cccc(Cl)c1` (relative stereo) [Example 65, rac-(1S*,2S*)-2-(3-chlorophenyl)-N-(6-(((6-cyclopropyl-8-((R)-4-hydroxy-2-oxopyrrolidin-1-yl)imidazo[1,2-a]pyridin-2-yl)methyl)amino)pyrimidin-4-yl)cyclopropane-1-carboxamide] belongs 1 to 10 nM; to `CC1CCN(c2cc(C3CC3)cn3cc(CNc4cc(NC(=O)[C@H]5C[C@@H]5c5cccc(Cl)c5)ncn4)nc23)C1=O` (relative stereo) [Example 67, rac-(1S*,2S*)-2-(3-chlorophenyl)-N-(6-(((6-cyclopropyl-8-(3-methyl-2-oxopyrrolidin-1-yl)imidazo[1,2-a]pyridin-2-yl)methyl)amino)pyrimidin-4-yl)cyclopropane-1-carboxamide], 1 to 10 nM. To `CC1OCCN(c2cc(C3CC3)cn3cc(CNc4cc(NC(=O)[C@H]5C[C@@H]5c5cccc(Cl)c5)ncn4)nc23)C1=O` (relative stereo) [Example 68, rac-(1S*,2S*)-2-(3-chlorophenyl)-N-(6-(((6-cyclopropyl-8-(2-methyl-3-oxomorpholino)imidazo[1,2-α]pyridin-2-yl)methyl)amino)pyrimidin-4-yl)cyclopropane-1-carboxamide] belongs 1 to 10 nM; to `C[S+]([O-])c1nc(NCc2cn3cc(C4CC4)ccc3n2)cc(NC(=O)[C@H]2C[C@@H]2c2cccc(Cl)c2)n1` (relative stereo) [Example 109, rac-(1S*,2S*)-2-(3-chlorophenyl)-N-(6-(((6-cyclopropylimidazo[1,2-a]pyridin-2-yl)methyl)amino)-2-(methylsulfinyl)pyrimidin-4-yl)cyclopropane-1-carboxamide], 1 to 10 nM; to `O=C(Nc1cc(NCc2cn3cc(C4CC4)cc(N4CCCC4=O)c3n2)ccn1)[C@@H]1C[C@H]1c1cccc(Cl)c1` (relative stereo) [Example 118], under 1 nM.
